# Data taken from ChEMBL document CHEMBL1201862, “PubChem BioAssay data set” (2004).
# Activity calls are given as the source filed them.
# Columns and labels:
# [1] = target: Heat shock protein HSP 90-alpha (Homo sapiens, UniProt P07900); format: functional, organism-based
# Streptococcus = experiment: Group A Streptococcus viability loss, dose response, counter-screen for streptokinase expression inhibitor project, luminescence, BacTiterGlo (AID 1915); format: functional, organism-based;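 also: potency for reduction of bacterial viability or growth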
# [2] = Luminescence Cell-Based Dose Retest to Confirm Inhibitors of Cancer Stem Cells. [Related pubchem assays (depositor defined):AID2717, AID2721]; format: functional; conditions: Homo sapiens
# [3] = tested on: Streptococcus sp. 'group A'; experiment: growth inhibition of control SK(-) GAS strain, dose response, counter-screen for streptokinase expression inhibitor project, luminescence, kanamycin, BacTiterGlo, confirmation (AID 1900); format: functional, organism-based
# [4] = target: T1, Ubiquitin-conjugating enzyme E2 N (Homo sapiens, UniProt P61088); format: functional;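 also: Dose-response confirmation in a TR-FRET assay detecting UBC13-driven polyubiquitin chain formation, inhibition measured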
# T1 sequence (P61088 whole entry): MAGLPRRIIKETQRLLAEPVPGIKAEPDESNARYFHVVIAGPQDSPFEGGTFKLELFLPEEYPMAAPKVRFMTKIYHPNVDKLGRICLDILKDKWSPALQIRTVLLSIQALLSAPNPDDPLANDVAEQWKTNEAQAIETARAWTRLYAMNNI
# [5] = P. falciparum Dd2 growth inhibitors, dose response, SYBR Green, cherry-picked samples (AID 1159567); format: functional, cell-based
# [6] = target: Luciferin 4-monooxygenase (Photinus pyralis, UniProt P08659); experiment: firefly luciferase enzyme inhibitors, dose response, biochemical, luminescence (AID 1891)
# [7] = Luminescence Cell-Based Dose Confirmation HTS to Identify Inhibitors of Platelet Dense Granule Release. [Related pubchem assays: 1663 (Primary HTS), 1678 (Summary of Project)]; format: functional
# [8] = target: T2, Heat shock factor protein 1 (Mus musculus, UniProt P38532); experiment: HSF1 potentiators in luciferase reporter cells, confirmation, cell-based, NIH3T3, luminescence, dose retest (AID 435004); format: functional;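 also: stress induced by proteasome inhibitor MG132 added 30 min after compound; luciferase reporter driven by HSF1 response element in NIH3T3 cells; actives raise luminescence as potentiators of the MG132 stress response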
# T2 sequence (P38532 whole entry): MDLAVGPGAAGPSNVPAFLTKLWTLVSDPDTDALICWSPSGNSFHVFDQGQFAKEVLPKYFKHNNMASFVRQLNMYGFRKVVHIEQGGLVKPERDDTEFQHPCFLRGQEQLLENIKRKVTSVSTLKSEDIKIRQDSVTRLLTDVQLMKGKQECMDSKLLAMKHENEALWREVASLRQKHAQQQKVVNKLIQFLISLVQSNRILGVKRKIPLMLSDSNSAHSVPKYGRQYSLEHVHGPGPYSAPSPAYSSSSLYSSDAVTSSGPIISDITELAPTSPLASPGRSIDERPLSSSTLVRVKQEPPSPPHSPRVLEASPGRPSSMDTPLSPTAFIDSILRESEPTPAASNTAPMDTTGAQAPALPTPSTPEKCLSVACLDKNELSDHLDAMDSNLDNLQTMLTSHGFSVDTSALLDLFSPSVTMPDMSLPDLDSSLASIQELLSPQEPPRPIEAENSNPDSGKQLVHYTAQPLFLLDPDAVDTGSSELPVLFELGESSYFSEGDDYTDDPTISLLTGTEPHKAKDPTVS
# [9] = target: T3, Calpain-2 catalytic subunit (Sus scrofa, UniProt P43367); experiment: pig calpain II inhibitor potency, dose response, biochemical, fluorogenic peptide substrate (AID 1420); format: functional
# T3 sequence (P43367 whole entry): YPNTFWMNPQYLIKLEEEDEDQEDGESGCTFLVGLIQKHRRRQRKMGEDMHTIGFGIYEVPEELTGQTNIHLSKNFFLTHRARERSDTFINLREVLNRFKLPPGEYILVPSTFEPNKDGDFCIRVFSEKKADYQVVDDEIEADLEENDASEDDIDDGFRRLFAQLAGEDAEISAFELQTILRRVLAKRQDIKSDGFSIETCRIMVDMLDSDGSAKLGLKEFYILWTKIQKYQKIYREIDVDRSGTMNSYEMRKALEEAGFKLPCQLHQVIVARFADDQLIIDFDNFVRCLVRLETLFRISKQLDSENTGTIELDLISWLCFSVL
# H9c2 = experiment: cells; format: functional, cell-based; conditions: Rattus norvegicus, H9c2, Myocardium;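 also: confirmatory concentration-response retest of ultra-high-throughput screening hits for modulation of myocardial damage; cell death induced by hydrogen peroxide oxidative stress; compound pretreatment for 60 min then peroxide exposure for 2 h; potency is for protecting the cells against peroxide damage rather than for killing them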
# [10] = inhibitors of firefly luciferase expression or activity, dose response, H4 neuroglioma cells, luminescence (AID 1990); format: functional, cell-based
# [11] = inhibitors of SNCA 5'UTR-driven reporter translation, confirmation, H4 neuroglioma cells, luminescence (AID 1988); format: functional, cell-based
# [12] = Luminescence Cell-Based Dose Response HTS to Identify Inhibitors of 5'UTR Stem-Loop Driven Prion Protein mRNA Translation in H4 Neuroglioblastoma Cells. [Related pubchem assays: 1827 (Project Summary), 1813 (Primary HTS)]; format: functional
# [13] = microbe, parasite or virus in culture; format: functional; conditions: Mycobacterium tuberculosis
# Cytochrome P450 2C9 = Cytochrome P450 2C9 (Homo sapiens, UniProt P11712)
# Cytochrome P450 1A2 = target: T4, Cytochrome P450 1A2 (Homo sapiens, UniProt P05177);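 also: PubChem cytochrome P450 panel assay, CYP1A2 panel member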
# T4 sequence (P05177 whole entry): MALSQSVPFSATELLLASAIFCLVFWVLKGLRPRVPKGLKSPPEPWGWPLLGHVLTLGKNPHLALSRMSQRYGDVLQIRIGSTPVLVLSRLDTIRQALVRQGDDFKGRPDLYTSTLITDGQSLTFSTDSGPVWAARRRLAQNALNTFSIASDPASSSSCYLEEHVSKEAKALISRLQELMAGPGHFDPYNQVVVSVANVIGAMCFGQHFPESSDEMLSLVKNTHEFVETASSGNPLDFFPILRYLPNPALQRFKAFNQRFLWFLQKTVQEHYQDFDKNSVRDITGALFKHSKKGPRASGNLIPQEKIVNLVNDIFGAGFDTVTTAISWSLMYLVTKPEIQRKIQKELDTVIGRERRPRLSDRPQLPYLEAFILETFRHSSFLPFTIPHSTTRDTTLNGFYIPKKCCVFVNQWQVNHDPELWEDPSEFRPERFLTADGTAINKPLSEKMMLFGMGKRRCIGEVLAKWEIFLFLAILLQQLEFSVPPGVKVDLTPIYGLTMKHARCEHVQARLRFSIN
# Cytochrome P450 2D6 = Cytochrome P450 2D6 (Homo sapiens, UniProt P10635);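 also: CYP2D6 member of a cytochrome P450 panel assay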
# Fatty acid synthase = Fatty acid synthase (Homo sapiens, UniProt P49327); experiment: FAS thioesterase domain inhibitors, dose response, biochemical, kinetic fluorescence intensity (AID 624326); format: functional;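 also: rate of fluorescence rise from hydrolysis of a fluorogenic O-methyl fluorescein ester substrate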
# Cytochrome P450 3A4 = Cytochrome P450 3A4 (Homo sapiens, UniProt P08684);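 also: CYP3A4 tested as one member of a cytochrome P450 panel screen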
# Cytochrome P450 2C19 = Cytochrome P450 2C19 (Homo sapiens, UniProt P33261); experiment: Cytochrome panel assay with activity outcomes. Panel member name: p450-cyp2c19 Compounds with AC50 equal or less than 10 uM are considered active; format: functional; conditions: read-out: AC50
# Chain of Cytochrome P450 2C19 (P33261 whole entry): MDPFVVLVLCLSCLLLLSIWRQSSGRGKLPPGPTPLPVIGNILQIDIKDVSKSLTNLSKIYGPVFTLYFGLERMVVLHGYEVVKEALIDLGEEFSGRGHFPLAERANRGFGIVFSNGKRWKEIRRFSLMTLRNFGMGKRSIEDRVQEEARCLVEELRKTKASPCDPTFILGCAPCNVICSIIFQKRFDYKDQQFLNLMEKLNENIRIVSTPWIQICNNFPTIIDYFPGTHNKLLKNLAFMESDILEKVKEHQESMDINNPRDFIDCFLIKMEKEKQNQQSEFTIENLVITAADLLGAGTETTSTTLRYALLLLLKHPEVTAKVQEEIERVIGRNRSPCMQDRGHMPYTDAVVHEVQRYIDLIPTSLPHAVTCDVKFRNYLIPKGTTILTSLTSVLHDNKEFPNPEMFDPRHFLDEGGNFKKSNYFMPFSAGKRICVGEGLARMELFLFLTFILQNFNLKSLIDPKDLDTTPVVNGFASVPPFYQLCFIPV
# Chain of Luciferin 4-monooxygenase (P08659 whole entry): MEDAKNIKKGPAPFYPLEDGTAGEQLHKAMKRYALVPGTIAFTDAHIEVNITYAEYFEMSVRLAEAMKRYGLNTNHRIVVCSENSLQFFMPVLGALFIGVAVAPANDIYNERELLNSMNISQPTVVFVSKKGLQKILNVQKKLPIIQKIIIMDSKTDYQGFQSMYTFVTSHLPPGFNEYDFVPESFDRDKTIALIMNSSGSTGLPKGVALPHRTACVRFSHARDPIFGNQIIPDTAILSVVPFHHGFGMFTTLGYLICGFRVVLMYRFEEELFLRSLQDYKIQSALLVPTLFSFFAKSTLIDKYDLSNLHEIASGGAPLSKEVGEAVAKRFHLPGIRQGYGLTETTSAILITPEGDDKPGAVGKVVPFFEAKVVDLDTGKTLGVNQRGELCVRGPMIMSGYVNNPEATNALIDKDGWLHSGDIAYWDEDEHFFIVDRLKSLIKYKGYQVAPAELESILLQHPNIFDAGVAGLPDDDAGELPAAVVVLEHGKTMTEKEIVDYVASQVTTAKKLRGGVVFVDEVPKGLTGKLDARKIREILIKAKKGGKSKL
# Chain of Cytochrome P450 2D6 (P10635 whole entry, the tested form may be a part): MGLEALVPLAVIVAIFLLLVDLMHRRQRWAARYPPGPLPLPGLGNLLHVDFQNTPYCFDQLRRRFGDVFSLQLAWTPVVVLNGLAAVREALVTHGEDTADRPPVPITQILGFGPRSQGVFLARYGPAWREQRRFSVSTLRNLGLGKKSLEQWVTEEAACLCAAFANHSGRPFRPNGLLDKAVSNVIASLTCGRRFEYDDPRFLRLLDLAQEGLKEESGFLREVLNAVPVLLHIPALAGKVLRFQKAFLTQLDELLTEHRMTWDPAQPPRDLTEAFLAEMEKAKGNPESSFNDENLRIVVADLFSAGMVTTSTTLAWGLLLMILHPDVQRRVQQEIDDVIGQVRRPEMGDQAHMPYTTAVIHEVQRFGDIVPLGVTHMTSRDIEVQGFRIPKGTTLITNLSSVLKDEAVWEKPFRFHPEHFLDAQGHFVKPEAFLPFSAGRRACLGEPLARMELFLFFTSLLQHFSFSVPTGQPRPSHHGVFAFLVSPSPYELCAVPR
# Chain of Cytochrome P450 3A4 (P08684 whole entry): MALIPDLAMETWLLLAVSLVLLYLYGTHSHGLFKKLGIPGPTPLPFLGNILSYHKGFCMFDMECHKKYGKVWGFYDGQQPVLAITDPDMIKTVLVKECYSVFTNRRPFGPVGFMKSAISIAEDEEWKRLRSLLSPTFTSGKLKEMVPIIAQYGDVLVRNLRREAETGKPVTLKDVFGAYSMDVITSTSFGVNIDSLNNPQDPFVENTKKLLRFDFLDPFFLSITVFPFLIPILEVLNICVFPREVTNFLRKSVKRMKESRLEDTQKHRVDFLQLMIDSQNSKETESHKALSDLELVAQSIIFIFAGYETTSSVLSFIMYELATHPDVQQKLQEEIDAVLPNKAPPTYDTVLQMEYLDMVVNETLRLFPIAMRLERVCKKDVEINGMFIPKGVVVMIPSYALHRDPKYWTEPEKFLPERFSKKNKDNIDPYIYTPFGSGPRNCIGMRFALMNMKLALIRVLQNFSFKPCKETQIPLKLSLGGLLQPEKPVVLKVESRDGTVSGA
# Chain of Fatty acid synthase (P49327 whole entry, the tested form may be a part): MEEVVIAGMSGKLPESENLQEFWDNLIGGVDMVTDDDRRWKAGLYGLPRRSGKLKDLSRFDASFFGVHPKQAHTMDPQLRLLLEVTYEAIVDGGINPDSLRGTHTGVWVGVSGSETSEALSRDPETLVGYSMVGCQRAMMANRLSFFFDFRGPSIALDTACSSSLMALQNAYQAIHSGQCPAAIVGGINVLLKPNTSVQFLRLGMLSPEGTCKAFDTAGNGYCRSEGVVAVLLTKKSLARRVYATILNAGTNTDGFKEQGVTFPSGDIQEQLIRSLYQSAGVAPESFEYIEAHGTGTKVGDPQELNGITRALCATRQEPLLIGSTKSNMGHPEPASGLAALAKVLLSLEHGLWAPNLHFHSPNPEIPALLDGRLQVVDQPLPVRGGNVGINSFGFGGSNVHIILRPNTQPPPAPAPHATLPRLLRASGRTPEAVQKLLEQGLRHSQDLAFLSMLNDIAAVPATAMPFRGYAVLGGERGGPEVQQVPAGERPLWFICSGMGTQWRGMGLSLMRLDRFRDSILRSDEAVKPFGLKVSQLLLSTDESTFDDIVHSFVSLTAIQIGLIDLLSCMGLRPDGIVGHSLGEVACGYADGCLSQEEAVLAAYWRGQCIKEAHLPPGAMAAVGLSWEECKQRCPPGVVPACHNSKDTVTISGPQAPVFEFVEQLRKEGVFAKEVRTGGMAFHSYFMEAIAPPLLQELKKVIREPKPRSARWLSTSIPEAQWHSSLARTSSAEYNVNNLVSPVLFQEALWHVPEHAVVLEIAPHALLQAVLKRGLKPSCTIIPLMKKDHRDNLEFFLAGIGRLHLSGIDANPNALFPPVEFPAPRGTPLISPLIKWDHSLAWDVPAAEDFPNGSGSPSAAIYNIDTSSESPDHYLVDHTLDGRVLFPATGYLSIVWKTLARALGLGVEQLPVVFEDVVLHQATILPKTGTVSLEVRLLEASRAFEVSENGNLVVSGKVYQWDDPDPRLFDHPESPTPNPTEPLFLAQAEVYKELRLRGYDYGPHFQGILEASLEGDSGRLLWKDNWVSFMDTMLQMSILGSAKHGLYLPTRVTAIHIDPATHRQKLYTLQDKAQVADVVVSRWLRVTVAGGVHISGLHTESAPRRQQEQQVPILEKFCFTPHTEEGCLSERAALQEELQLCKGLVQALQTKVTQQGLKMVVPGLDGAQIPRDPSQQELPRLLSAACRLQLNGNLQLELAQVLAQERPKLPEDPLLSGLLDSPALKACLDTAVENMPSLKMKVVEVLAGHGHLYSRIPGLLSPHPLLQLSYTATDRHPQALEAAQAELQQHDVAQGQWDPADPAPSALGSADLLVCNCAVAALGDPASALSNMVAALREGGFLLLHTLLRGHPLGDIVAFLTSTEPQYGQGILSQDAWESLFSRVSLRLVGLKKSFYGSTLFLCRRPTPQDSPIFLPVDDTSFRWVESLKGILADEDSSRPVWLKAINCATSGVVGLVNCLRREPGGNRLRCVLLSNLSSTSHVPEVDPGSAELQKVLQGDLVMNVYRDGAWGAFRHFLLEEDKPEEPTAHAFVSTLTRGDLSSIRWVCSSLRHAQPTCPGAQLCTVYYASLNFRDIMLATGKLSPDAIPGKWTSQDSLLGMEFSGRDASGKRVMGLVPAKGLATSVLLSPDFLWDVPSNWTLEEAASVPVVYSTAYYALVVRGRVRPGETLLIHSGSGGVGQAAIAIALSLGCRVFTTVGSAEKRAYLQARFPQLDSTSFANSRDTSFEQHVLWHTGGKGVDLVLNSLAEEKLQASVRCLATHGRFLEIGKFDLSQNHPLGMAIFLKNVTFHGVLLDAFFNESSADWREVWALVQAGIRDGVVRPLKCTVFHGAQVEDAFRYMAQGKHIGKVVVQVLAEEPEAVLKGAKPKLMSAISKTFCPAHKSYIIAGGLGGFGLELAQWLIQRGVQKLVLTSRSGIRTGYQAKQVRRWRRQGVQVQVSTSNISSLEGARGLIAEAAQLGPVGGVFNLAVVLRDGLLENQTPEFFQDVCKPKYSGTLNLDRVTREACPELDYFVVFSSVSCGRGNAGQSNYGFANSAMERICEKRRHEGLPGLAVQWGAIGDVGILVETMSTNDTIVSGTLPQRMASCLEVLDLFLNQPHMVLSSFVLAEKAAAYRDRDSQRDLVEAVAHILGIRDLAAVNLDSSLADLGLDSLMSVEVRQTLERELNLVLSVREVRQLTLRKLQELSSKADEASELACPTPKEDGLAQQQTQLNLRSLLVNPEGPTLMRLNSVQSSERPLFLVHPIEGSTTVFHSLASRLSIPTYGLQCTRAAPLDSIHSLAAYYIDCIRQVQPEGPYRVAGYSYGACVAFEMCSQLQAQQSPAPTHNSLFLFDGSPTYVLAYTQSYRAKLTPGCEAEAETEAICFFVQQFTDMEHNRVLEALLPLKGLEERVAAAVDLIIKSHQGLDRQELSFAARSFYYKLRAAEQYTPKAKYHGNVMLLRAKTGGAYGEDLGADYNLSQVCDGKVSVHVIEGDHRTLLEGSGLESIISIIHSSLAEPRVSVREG
# Chain of Cytochrome P450 2C9 (P11712 whole entry): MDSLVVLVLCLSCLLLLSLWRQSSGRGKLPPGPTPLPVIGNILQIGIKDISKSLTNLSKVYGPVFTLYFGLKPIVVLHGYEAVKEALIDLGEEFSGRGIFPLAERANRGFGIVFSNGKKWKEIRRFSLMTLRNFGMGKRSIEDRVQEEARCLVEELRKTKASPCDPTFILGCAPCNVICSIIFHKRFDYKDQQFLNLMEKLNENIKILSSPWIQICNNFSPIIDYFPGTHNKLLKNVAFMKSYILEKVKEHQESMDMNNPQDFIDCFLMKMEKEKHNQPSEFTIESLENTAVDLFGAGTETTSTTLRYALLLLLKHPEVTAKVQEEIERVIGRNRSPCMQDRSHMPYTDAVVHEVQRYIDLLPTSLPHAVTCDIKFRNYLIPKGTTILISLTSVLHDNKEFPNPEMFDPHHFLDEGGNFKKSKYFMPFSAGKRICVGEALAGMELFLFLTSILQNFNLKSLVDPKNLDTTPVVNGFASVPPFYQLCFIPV
structure (smiles),measurement,setting,value
Oc1ccccc1C1=NN(c2ccccc2)C(c2ccccc2)C1 (configuration not stated),AC50,[1],4.3 µM (active)
same,EC50,Streptococcus,6.93 µM (active)
same,AC50,[2],1.29 µM (active)
same,EC50,[3],4.06 µM (active)
Cc1ccc(C(C(=O)NCC2CCCO2)N(C(=O)c2snc(C(N)=O)c2N)c2ccc(C)c(C)c2)o1 (configuration not stated),IC50,[4],> 20 µM (inactive)
CCCC#Cc1ccc(CC[C@H]2O[C@H]3CC[C@H](CO)O[C@H]3C[C@@H]2n2cc(C(C)(C)O)nn2)cc1,AC50,[5],16.8 µM (active)
CN(C)S(=O)(=O)c1ccc(Cl)c(NC(=O)CSc2nc3ccccc3c(=O)n2CCCN2CCOCC2)c1,EC50,[6],> 112 µM (not active)
same,EC50,[7],17.8 µM (active)
Cc1ccc(S(=O)(=O)N(C)c2ccc(C)c([N+](=O)[O-])c2)cc1,EC50,[8],> 260 µM (inactive)
same,IC50,[9],18.8 µM (not active)
Cc1cc(C(=O)N/N=C/c2c(CO)cnc(C)c2O)c2ccccc2n1,IC50,H9c2,> 79 µM (inactive)
CC(C)C(=O)Nc1ncc(Cc2ccc(Cl)cc2)s1,IC50,[9],5.63 µM (not active)
CCOC(=O)C1CCN(C(c2cc3c(C)ccc(C)c3nc2O)c2nnnn2C2CCCCC2)CC1 (configuration not stated),IC50,H9c2,> 79 µM (inactive)
Cc1ccc(-c2noc(CCC(=O)Nc3ccccc3N3CCN(C)CC3)n2)cc1,IC50,[4],> 20 µM (inactive)
CCc1c(C2(O)CCCCC2)[nH]c2ccc(C(F)(F)F)cc12,EC50,[10],60.5 µM (active)
same,AC50,[2],2.64 µM (active)
same,EC50,[11],8.44 µM (active)
same,EC50,[12],> 120 µM (not active)
same,CC50,[13],27.1 µM (active)
Cc1ccc(C2SCCN2C(=O)c2ccc([N+](=O)[O-])cc2)cc1 (configuration not stated),EC50,[6],> 112 µM (not active)
same,EC50,[7],> 112 µM (not active)
COc1ccc(CCNC(=O)C[S+]([O-])Cc2nc(-c3ccc(C)cc3)oc2C)cc1OC (configuration not stated),EC50,[6],> 112 µM (not active)
same,EC50,[7],> 112 µM (not active)
CCCC(=O)Nc1cc(C(F)(F)F)ccc1N1CCOCC1,EC50,[6],> 112 µM (not active)
same,EC50,[7],> 112 µM (not active)
O=C(CSc1ccc(-c2ccco2)nn1)c1ccccc1,EC50,[6],> 112 µM (not active)
same,EC50,[7],> 112 µM (not active)
O=C(CCc1nc(O)c2ccccc2n1)NNC(=O)COc1cccc(F)c1,IC50,H9c2,> 79 µM (inactive)
CN(CC(=O)Nc1ccccc1Br)C(=O)C(Cc1ccccc1)NC(=O)c1ccccc1 (configuration not stated),EC50,[6],> 112 µM (not active)
same,EC50,[7],> 112 µM (not active)
Cc1cnc(C(=O)OCC(=O)Nc2ccc(Cl)cc2Cl)cn1,EC50,[6],> 112 µM (not active)
same,EC50,[7],14.8 µM (active)
CCOC(=O)c1ccc(/N=C2/S/C(=C\c3cc(C)n(-c4cccnc4)c3C)C(=O)N2C)cc1,CC50,[13],> 40 µM (active)
CC(C)NC(=O)N1[C@H](C#N)[C@H](c2ccccc2-c2ccc(F)cc2)[C@@H]1CO,AC50,[5],3.57 µM (active)
Cc1c(CCC(=O)NCCCn2ccnc2)c(=O)oc2c(C)c3occ(C(C)(C)C)c3cc12,CC50,[13],22.1 µM (active)
CSCCC(NC(=O)c1ccccc1Cl)C(=O)NNC(=O)c1csc(N2CCOCC2)n1 (configuration not stated),IC50,[4],> 20 µM (inactive)
O=C(Nc1ccccc1)c1nc[nH]c1C(=O)NCCCCNC(=O)c1nc[nH]c1C(=O)Nc1ccccc1,IC50,H9c2,> 79 µM (inactive)
O=[N+]([O-])c1cc(-n2cnnn2)ccc1N1CCC(Cc2ccccc2)CC1,AC50,[1],4.38 µM (active)
CCCCNC(=S)N(C)/N=C/c1ccc2c(c1)OCO2,AC50,[2],2.04 µM (active)
same,CC50,[13],> 40 µM (active)
CC(C)n1nc(C(=O)OCC(=O)c2c[nH]c3ccccc23)c2ccccc2c1=O,IC50,H9c2,27.3 µM (active)
same,IC50,[9],0.91 µM (not active)
N#Cc1cccc(-c2nc3cnc(Nc4ccccc4)nc3n(C[C@H]3CCCO3)c2=O)c1,AC50,Cytochrome P450 2C9,10 µM (inconclusive)
same,AC50,Cytochrome P450 1A2,2 µM (inconclusive)
same,AC50,Cytochrome P450 2D6,1 µM (inconclusive)
FC(F)(F)c1nnc2ccc(NCc3ccccc3)nn12,IC50,[9],2.23 µM (active)
NC(=O)c1cccc(Nc2nc(C(N)COCc3ccccc3)cs2)n1 (configuration not stated),IC50,H9c2,19.8 µM (active)
CN(C(=O)Nc1ccc(Cl)cc1Cl)[C@H]1c2cc(Br)ccc2OC[C@H]1CO,IC50,Fatty acid synthase,11.3 µM (active)
COc1ccccc1N(C)S(=O)(=O)c1ccc(C(=O)Nc2ccc3nc(C)sc3c2)cc1,CC50,[13],38.1 µM (active)
Cn1cnc([N+](=O)[O-])c1Nc1ccccc1O,EC50,[6],> 112 µM (not active)
same,EC50,[7],> 112 µM (not active)
N#Cc1cccc(-c2ccc([C@@H]3[C@@H]4CN(C(=O)C5CCC5)C[C@H]3N4)cc2)c1,AC50,[5],3.71 µM (active)
CCCc1nc2oc(C(=O)OCC)c(N)c2c2c1COC(C)(C)C2,CC50,[13],> 40 µM (active)
COc1ccc(/N=C/c2cc(Cc3ccccc3Cl)cc([N+](=O)[O-])c2O)cc1OC,AC50,[1],1.6 µM (active)
C[C@@H]1CN([C@@H](C)CO)C(=O)c2c(c3ccccc3n2C)-c2ccccc2CO[C@H]1CN(C)Cc1cccc(C(=O)Nc2ccccc2N)c1,AC50,[5],2.81 µM (active)
CCC(=O)N(C)CCc1cc2c(c(OC)c1/C=N/NC(=O)c1ccccc1O)OCO2,EC50,[6],> 112 µM (not active)
same,EC50,[7],> 112 µM (not active)
COC(=O)[C@@]1(Cc2ccccc2)[C@H]2c3cc(C(=O)N4CCCC4)n(CCN4CNCC4=O)c3C[C@H]2CN1C(=O)c1ccccc1,AC50,Cytochrome P450 3A4,1.58 µM (inconclusive)
same,AC50,Cytochrome P450 1A2,25.1 µM (inconclusive)
same,AC50,Cytochrome P450 2C19,39.8 µM (inconclusive)
same,AC50,Cytochrome P450 2D6,39.8 µM (inconclusive)
O=C(COC(=O)Cc1nnc(O)c2ccccc12)Nc1ccc(Cl)cn1,IC50,H9c2,> 79 µM (inactive)
CC1CCN(c2nc3nonc3nc2Nc2ccc(F)cc2)CC1,IC50,[9],11.7 µM (not active)
Oc1nc(NCc2ccccc2)nc2c1CCCC2,IC50,H9c2,52.3 µM (inactive)
C[C@H]1CN([C@@H](C)CO)C(=O)c2c(c3ccccc3n2C)-c2ccccc2CO[C@@H]1CN(C)Cc1cccc(O)c1,AC50,[5],3.24 µM (active)
C#CCNC(=O)C1=C[C@H](c2cn(C(C)=O)c3ccccc23)C[C@H](OCc2ccc(CO)cc2)O1,IC50,[4],> 20 µM (inactive)
O=C(NCC1CCCO1)c1cc([N+](=O)[O-])ccc1N1CCC(Cc2ccccc2)CC1 (configuration not stated),AC50,[1],4.28 µM (active)
